# Source: ChEMBL document CHEMBL4038307, “Influence of a Basic Side Chain on the Properties of Hypoxia-Selective Nitro Analogues of the Duocarmycins: Demonstration of Substantial Anticancer Activity in Combination with Irradiation or Chemotherapy” (J Med Chem, 2017)
# Calls of active or inactive are those of the source. The calls are words filed in the database; no cut-off is given here.
# Columns and labels:
# SiHa [1] = assay: Antitumor activity against human SiHa cells xenografted in CD-1 Foxn1 nude mouse assessed as log reduction in colony forming cells under hypoxic condition at 42 umol/kg, iv treated 5 mins after gamma irradiation measured after 18 hrs by excision assay; type: functional
# Mus musculus [2] = assay: Toxicity in CD-1 Foxn1 nude mouse xenografted with human A2780 cells at 15 umol/kg, iv after 100 to 120 days in presence of gemcitabine; type: organism-based; settings: in vivo
# CWR22R [3] = assay: Antitumor activity against human 22Rv1 cells xenografted in CD-1 Foxn1 nude mouse assessed as tumor regression at 14 umol/kg, iv after 100 to 120 days in presence of docetaxel; type: functional, organism-based
# HCT-116 = assay: Antitumor activity against human HCT116 cells xenografted in CD-1 Foxn1 nude mouse assessed as reduction in colony forming cells at 56 umol/kg, iv treated 5 mins after gamma irradiation measured after 18 hrs by excision assay; type: functional, organism-based
# NCI-H1299 = assay: Antitumor activity against human H1299 cells xenografted in CD-1 Foxn1 nude mouse assessed as reduction in colony forming cells at 75 umol/kg, iv treated 5 mins after gamma irradiation measured after 18 hrs by excision assay; type: functional, organism-based
# CWR22R [4] = assay: Antitumor activity against human 22Rv1 cells xenografted in CD-1 Foxn1 nude mouse assessed as tumor regrowth at 14 umol/kg, iv after 100 to 120 days; type: functional, organism-based
# NCI-H460 = assay: Antitumor activity against human H460 cells xenografted in CD-1 Foxn1 nude mouse assessed as reduction in colony forming cells under hypoxic condition at 75 umol/kg, iv treated 5 mins after gamma irradiation measured after 18 hrs by excision assay; type: functional, organism-based
# Mus musculus [5] = assay: Toxicity in CD-1 Foxn1 nude mouse xenografted with human 22Rv1 cells at 14 umol/kg, ip; settings: in vivo
# Mus musculus [6] = assay: Toxicity in CD-1 Foxn1 nude mouse xenografted with human A2780 cells assessed as change in body weight at 15 umol/kg, iv after 100 to 120 days in presence of gemcitabine; type: organism-based; settings: in vivo
# Mus musculus [7] = assay: Toxicity in CD-1 Foxn1 nude mouse xenografted with human 22Rv1 cells assessed as change in body weight at 14 umol/kg, ip; settings: in vivo
# CWR22R [8] = assay: Antitumor activity against human 22Rv1 cells xenografted in CD-1 Foxn1 nude mouse assessed as median tumor growth delay time at 15 umol/kg, iv after 100 to 120 days in presence of docetaxel; type: functional
# A2780 [9] = assay: Antitumor activity against human A2780 cells xenografted in CD-1 Foxn1 nude mouse assessed as tumor regrowth at 15 umol/kg, iv after 100 to 120 days; type: functional, organism-based
# A2780 [10] = assay: Antitumor activity against human A2780 cells xenografted in CD-1 Foxn1 nude mouse assessed as median tumor growth delay time at 15 umol/kg, iv after 100 to 120 days in presence of gemcitabine; type: functional
# CWR22R [11] = assay: Antitumor activity against human 22Rv1 cells xenografted in CD-1 Foxn1 nude mouse assessed as reduction in colony forming cells under hypoxic condition at 30 umol/kg, iv treated 5 mins after gamma irradiation measured after 18 hrs by excision assay; type: functional, organism-based
# SiHa [12] = assay: Antitumor activity against human SiHa cells xenografted in CD-1 Foxn1 nude mouse assessed as tumor regression at 42 to 56 umol/kg, iv after more than 100 days in presence of gemcitabine; type: functional, organism-based
# A2780 [13] = assay: Antitumor activity against human A2780 cells xenografted in CD-1 Foxn1 nude mouse assessed as tumor regression at 42 to 56 umol/kg, iv after 100 days in presence of gemcitabine; type: functional, organism-based
# SiHa [14] = assay: Antitumor activity against human SiHa cells xenografted in CD-1 Foxn1 nude mouse assessed as tumor regression at 42 to 56 umol/kg, iv after more than 100 days; type: functional, organism-based
# A2780 [15] = assay: Antitumor activity against human A2780 cells xenografted in CD-1 Foxn1 nude mouse assessed as tumor regression at 42 to 56 umol/kg, iv after 100 days; type: functional, organism-based
# Mus musculus [16] = assay: Toxicity in CD-1 Foxn1 nude mouse xenografted with human SiHa cells assessed as body weight change at 42 to 56 umol/kg, iv after 100 to 120 days in presence of gemcitabine; type: organism-based; settings: in vivo
# Mus musculus [17] = assay: Toxicity in CD-1 Foxn1 nude mouse xenografted with human SiHa cells assessed as sporadic acute toxicity at 42 to 56 umol/kg, iv; settings: in vivo
# A2780 [18] = assay: Antitumor activity against human A2780 cells xenografted in CD-1 Foxn1 nude mouse assessed as tumor regression at 42 to 56 umol/kg, iv after 8 to 23 days in presence of gemcitabine; type: functional, organism-based
# CWR22R [19] = assay: Antitumor activity against human 22Rv1 cells xenografted in CD-1 Foxn1 nude mouse assessed as tumor stasis at 32 umol/kg, ip once in every two weeks after 100 to 120 days; type: functional, organism-based
# Mus musculus [20] = assay: Toxicity in CD-1 Foxn1 nude mouse xenografted with human 22Rv1 cells assessed as change in body weight at 32 umol/kg, ip once in every two weeks after 100 to 120 days; type: organism-based; settings: in vivo
# CWR22R [21] = assay: Antitumor activity against human 22Rv1 cells xenografted in CD-1 Foxn1 nude mouse assessed as median tumor growth delay time at 32 umol/kg, ip once in every two weeks after 100 to 120 days; type: functional
# A2780 [22] = assay: Antitumor activity against human A2780 cells xenografted in CD-1 Foxn1 nude mouse assessed as tumor regression at 133 umol/kg, ip four times for every three days after 100 to 120 days; type: functional, organism-based
# A2780 [23] = assay: Antitumor activity against human A2780 cells xenografted in CD-1 Foxn1 nude mouse assessed as delay in tumor growth at 100 umol/kg, ip four times for every three days after 100 to 120 days; type: functional, organism-based
# SiHa [24] = assay: Antitumor activity against human SiHa cells xenografted in CD-1 Foxn1 nude mouse assessed as tumor regrowth at 237 umol/kg, ip four times for every three days after 100 to 120 days; type: functional, organism-based
# Mus musculus [25] = assay: Toxicity in CD-1 Foxn1 nude mouse xenografted with human SiHa cells assessed as lose in body weight at 133 umol/kg, ip four times for every three days after 100 to 120 days; type: organism-based; settings: in vivo
smiles,measurement,setting,value
Nc1cc2c(c3ccc(S(=O)(=O)NCCOP(=O)(O)O)cc13)C(CCl)CN2C(=O)c1cc2cc(OCCN3CCOCC3)ccc2[nH]1 (stereo not drawn),Activity,SiHa [1],>1
same,Activity,Mus musculus [2],Non-Toxic
same,Activity,CWR22R [3],Active
same,Activity,HCT-116,Active
same,Activity,NCI-H1299,Active
same,Activity,CWR22R [4],inactive
same,Activity,NCI-H460,Active
same,Activity,Mus musculus [5],Non-Toxic
same,Activity,Mus musculus [6],Non-Toxic
same,Activity,Mus musculus [7],Non-Toxic
same,Time,CWR22R [8],17 days
same,Activity,A2780 [9],inactive
same,Time,A2780 [10],14 days
same,Activity,CWR22R [11],Active
CN(C)CCOc1ccc2[nH]c(C(=O)N3CC(CCl)c4c3cc([N+](=O)[O-])c3cc(S(=O)(=O)NCCOP(=O)(O)O)ccc43)cc2c1 (stereo not drawn),Activity,SiHa [1],Active
same,Activity,SiHa [12],Active
same,Activity,HCT-116,Active
same,Activity,A2780 [13],Active
same,Activity,NCI-H1299,Active
same,Activity,SiHa [14],Active
same,Activity,A2780 [15],inactive
same,Activity,NCI-H460,Active
same,Activity,Mus musculus [16],Non-Toxic
same,Activity,Mus musculus [17],Toxic
same,Activity,A2780 [18],Active
same,Activity,CWR22R [11],Active
CC(=O)O[C@@]12CO[C@@H]1C[C@H](O)[C@@]1(C)C(=O)[C@H](O)C3=C(C)[C@@H](OC(=O)[C@H](O)[C@@H](NC(=O)OC(C)(C)C)c4ccccc4)C[C@@](O)([C@@H](OC(=O)c4ccccc4)[C@H]21)C3(C)C [DOCETAXEL ANHYDROUS],Activity,CWR22R [19],inactive
same,Activity,Mus musculus [20],Toxic
same,Time,CWR22R [21],13 days
Nc1ccn([C@@H]2O[C@H](CO)[C@@H](O)C2(F)F)c(=O)n1 [GEMCITABINE],Activity,A2780 [22],Active
same,Activity,A2780 [23],Active
same,Activity,SiHa [24],Active
same,Activity,Mus musculus [25],5%
